Results taken from patent EP2931723B1, “NEW BICYCLIC COMPOUNDS AND THEIR USE AS ANTIBACTERIAL AGENTS AND -LACTAMASE INHIBITORS” (Fedora Pharmaceuticals Inc., priority 2012, dated 2014).
Like-named read-outs stand apart in the source and are kept apart here.

Columns and labels:
Format in all cases: cell-based
[1] = system: E. coli ATCC 25922; test: MIC, antibacterial and synergistic activity; conditions: Escherichia coli, ATCC25922; E. coli ATCC 25922 (Wt); substance alone
[2] = system: E.coli JMI 4103; test: MIC, antibacterial and synergistic activity; conditions: Escherichia coli, JMI4103; E.coli JMI 4103 (KPC-2, Tem-1, CMY-Type); substance alone
[3] = system: E. coli JMI 4080; test: MIC, antibacterial and synergistic activity; conditions: Escherichia coli, JMI4080, E. coli JMI 4080 (Tem-10); substance alone
[4] = system: E. coli JMI 10768; test: MIC, antibacterial and synergistic activity; conditions: Escherichia coli, JMI10768; E. coli JMI 10768 (CTX-M15 (Weak ESBL)); substance alone
Experimental: (§1) In the Tables 10 - 12, compounds herein disclosed were tested in combination with various antibiotics against metallo β-lactamase producing bacteria. Table 3: Synergy of the inhibitor Ex. 1 (4 µg/mL) in combination with antibiotics

[5] = system: K. pneumo JMI 2674; test: MIC, antibacterial and synergistic activity; conditions: K. pneumo JMI 2674 (CTX-M15 (ESBL)); substance alone
Experimental: as §1

[6] = system: K. pneumo JMI 2699; test: MIC, antibacterial and synergistic activity; conditions: K. pneumo JMI 2699 (VIM-1, CTX-M3), substance alone
Experimental: as §1

[7] = system: K. pneumo JMI 4088; test: MIC, antibacterial and synergistic activity; conditions: K. pneumo JMI 4088 (KPC-3 (Cpase)); substance alone
Experimental: as §1

[8] = system: K. pneumo JMI 4106; test: MIC, antibacterial and synergistic activity; conditions: K. pneumo JMI 4106 (KPC-3, TEM-1, SHV-12, SHV-141), substance alone
[9] = system: E. coli JMI 2692; test: MIC, antibacterial and synergistic activity; conditions: Escherichia coli, JMI2692
Experimental: (§2) In the Tables 10 - 12, compounds herein disclosed were tested in combination with various antibiotics against metallo β-lactamase producing bacteria.

[10] = system: K. pneumo JMI 2693; test: MIC, antibacterial and synergistic activity; conditions: K. pneumo JMI 2693 (NDM-1 (Cpase)); substance alone
Experimental: as §2

[11] = system: K. pneumo JMI 2697; test: MIC, antibacterial and synergistic activity; conditions: K. pneumo JMI 2697 (IMP-4 (Cpase)); substance alone
Experimental: as §2

[12] = system: metallo β-lactamase producing bacteria; test: MIC in combination with various antibiotics against metallo β-lactamase producing bacteria (Tables 10-12); conditions: agent alone
Experimental: as §2

[13] = system: K. pneumo JMI 2674; test: MIC, antibacterial and synergistic activity; conditions: K. pneumo JMI 2674 (CTX-M15 (ESBL)); substance alone; remark: listed apart in the source
[14] = system: K. pneumo JMI 4088; test: MIC, antibacterial and synergistic activity; conditions: K. pneumo JMI 4088 (KPC-3 (Cpase)); substance alone; remark: listed apart in the source
[15] = system: P. aerug JMI 2686; test: MIC, antibacterial and synergistic activity; conditions: P. aerug JMI 2686 (KPC-2 (Cpase)); substance alone
[16] = system: E. coli JMI 10767; test: MIC, antibacterial and synergistic activity; conditions: Escherichia coli, JMI10767; E. coli JMI 10767 (Wt); substance alone
[17] = system: E. coli JMI 10770; test: MIC, antibacterial and synergistic activity; conditions: Escherichia coli, JMI10770; E. coli JMI 10770 (CTX-M15 (Hyper ESBL)); substance alone
[18] = system: E. coli JMI 11103; test: MIC, antibacterial and synergistic activity; conditions: Escherichia coli, JMI11103, E. coli JMI 11103 (CTX-M15 (Intermediate ESBL)); substance alone
[19] = system: A. baumanii JMI 2659; test: MIC, antibacterial and synergistic activity; conditions: Acinetobacter baumannii, JMI2659
[20] = system: E. coli JMI 2665; test: MIC, antibacterial and synergistic activity; conditions: Escherichia coli
Experimental: as §1

[21] = system: E. coli JMI 2671; test: MIC, antibacterial and synergistic activity; conditions: Escherichia coli, JMI2671, E. coli JMI 2671 (VIM-19 (Cpase)); substance alone
Experimental: as §1

[22] = system: P. aerug JMI 2686; test: MIC, antibacterial and synergistic activity; conditions: P. aerug JMI 2686 (KPC-2 (Cpase)); substance alone; remark: listed apart in the source
Experimental: as §1

[23] = system: K. pneumo JMI 2681; test: MIC, antibacterial and synergistic activity
[24] = system: P. aerug JMI 149; test: MIC, antibacterial and synergistic activity
[25] = system: E. cloacae JMI 36; test: MIC, antibacterial and synergistic activity; conditions: Enterobacter cloacae, JMI36
[26] = system: K.pneumo JMI 4109; test: MIC, antibacterial and synergistic activity; conditions: K.pneumo JMI 4109 (SHV-1, SHV-12); substance alone
[27] = system: K. pneumo JMI 2673; test: MIC, antibacterial and synergistic activity; conditions: K. pneumo JMI 2673 (CTX-M14 (ESBL)); substance alone
[28] = E. coli JMI 2692 (NDM-1, TEM-1, CTX-M-15), substance alone, read-out: MIC
[29] = Serratia marcescens, Isolate No 35, Enzyme IMP-4, unit assumed
[30] = Citrobacter freundii, Isolate No 49469, Enzyme NDM-1, unit assumed
[31] = Enterobacter aerogenes, Isolate No 8397, Enzyme VIM-1, unit assumed
[32] = Enterobacter aerogenes, Isolate No 47683, Enzyme VIM-12, unit assumed
[33] = Enterobacter cloacae, Isolate No 4, Enzyme VIM-6, unit assumed
[34] = Enterobacter cloacae, Isolate No 10, Enzyme IMP-26, unit assumed
[35] = Enterobacter cloacae, Isolate No 25, Enzyme IMP-4, unit assumed
[36] = Enterobacter cloacae, Isolate No 1068, Enzyme VIM-2, unit assumed
[37] = Enterobacter cloacae, Isolate No 1471, Enzyme VIM-1, unit assumed
[38] = Enterobacter cloacae, Isolate No 3686, Enzyme IMP-1, unit assumed
[39] = Enterobacter cloacae, Isolate No 53477, Enzyme NDM-1, unit assumed
[40] = Escherichia coli, Isolate No 17, Enzyme NDM-1, unit assumed
[41] = Escherichia coli, Isolate No 49, Enzyme NDM-1, unit assumed
[42] = Escherichia coli, Isolate No 53749, Enzyme NDM-1, unit assumed
[43] = Klebsiella oxytoca, Isolate No 24825, Enzyme IMP-26, unit assumed
[44] = Klebsiella oxytoca, Isolate No 31141, Enzyme VIM-23, unit assumed
[45] = Klebsiella pneumoniae, Isolate No 16, Enzyme VIM-5, unit assumed
[46] = Klebsiella pneumoniae, Isolate No 38, Enzyme NDM-1, unit assumed
[47] = Providencia stuartii, Isolate No 26582, Enzyme VIM-1, unit assumed
[48] = Serratia marcescens, Isolate No 36098, Enzyme IMP-19, unit assumed

SMILES: C[C@H]1[C@H](NC(=O)/C(=N\OC(C)(C)C(=O)O)c2csc(N)n2)C(=O)N1S(=O)(=O)O [Aztreonam, aztreonam, reference compound]
- MIC [1]: 0.25 µg/mL
- MIC [2]: > 512 µg/mL
- MIC [3]: 64 µg/mL
- MIC [4]: 8 µg/mL
- MIC [5]: 512 µg/mL
- MIC [6]: 128 µg/mL
- MIC ([6]; read-out: MIC): > 512 µg/mL
- MIC [7]: 512 µg/mL
- MIC [8]: 512 µg/mL
- MIC ([8]; read-out: MIC): > 512 µg/mL
- MIC [9, 28]: > 512 µg/mL
- MIC [10]: > 512 µg/mL
- MIC [11]: > 512 µg/mL
- MIC ([12]; Escherichia coli, Isolate No 13, Enzyme IMP-1): 16
- MIC [12, 29]: ≤ 0.12 µg/mL
- MIC [13]: 32 µg/mL
- MIC [14]: > 512 µg/mL
- MIC [15]: > 512 µg/mL
- MIC [16]: ≤ 1 µg/mL
- MIC [17]: 64 µg/mL
- MIC [18]: 32 µg/mL

SMILES: CC(C)(O/N=C(\C(=O)N[C@@H]1C(=O)N2C(C(=O)[O-])=C(C[n+]3ccccc3)CS[C@H]12)c1csc(N)n1)C(=O)O [Ceftazidime, ceftazidime, reference compound]
- MIC [1]: 0.25 µg/mL
- MIC [19]: 512 µg/mL
- MIC [2]: > 512 µg/mL
- MIC [3]: 64 µg/mL
- MIC [4]: 8 µg/mL
- MIC ([20]; JMI2665, E. coli JMI 2665 (CMY-2 (Plasmid Cpase)), substance alone, read-out: MIC): 8 µg/mL
- MIC [21]: 64 µg/mL
- MIC [5]: 512 µg/mL
- MIC ([6]; read-out: MIC): > 512 µg/mL
- MIC [22]: 512 µg/mL
- MIC ([8]; read-out: MIC): > 512 µg/mL
- MIC [9, 28]: > 512 µg/mL
- MIC [10]: > 512 µg/mL
- MIC [11]: > 512 µg/mL
- MIC [23]: 512 µg/mL
- MIC [24]: 256 µg/mL
- MIC [25]: 128 µg/mL
- MIC [12, 30]: > 256 µg/mL
- MIC [12, 31]: > 256 µg/mL
- MIC [12, 32]: 256 µg/mL
- MIC [12, 33]: 256 µg/mL
- MIC [12, 34]: > 256 µg/mL
- MIC [12, 35]: > 256 µg/mL
- MIC [12, 36]: 128 µg/mL
- MIC ([12]; Enterobacter cloacae, Isolate No 1280, Enzyme VIM-5, unit assumed): 64 µg/mL
- MIC [12, 37]: > 256 µg/mL
- MIC ([12]; Enterobacter cloacae, Isolate No 1874, Enzyme IMP-21, unit assumed): 32 µg/mL
- MIC [12, 38]: > 256 µg/mL
- MIC [12, 39]: > 256 µg/mL
- MIC ([12]; Escherichia coli, Isolate No 13, Enzyme IMP-1, unit assumed): 256 µg/mL
- MIC [12, 40]: > 256 µg/mL
- MIC [12, 41]: > 256 µg/mL
- MIC [12, 42]: > 256 µg/mL
- MIC [12, 43]: > 256 µg/mL
- MIC [12, 44]: 128 µg/mL
- MIC [12, 45]: > 256 µg/mL
- MIC [12, 46]: > 256 µg/mL
- MIC [12, 47]: > 256 µg/mL
- MIC [12, 29]: 64 µg/mL
- MIC [12, 48]: 128 µg/mL
- MIC [26]: 8 µg/mL
- MIC [27]: 32 µg/mL
- MIC [14]: > 512 µg/mL
- MIC [16]: ≤ 1 µg/mL
- MIC [17]: 64 µg/mL
- MIC [18]: 32 µg/mL

SMILES: C[C@@H](O)[C@H]1C(=O)N2C(C(=O)O)=C(S[C@@H]3CN[C@H](C(=O)N(C)C)C3)[C@H](C)[C@H]12 [Meropenem, meropenem, reference compound]
- MIC [1]: 0.06 µg/mL
- MIC ([19]; A. baumanii JMI 2659 (Ges-14 (Cpase)), substance alone, read-out: MIC): 64 µg/mL
- MIC [2]: 64 µg/mL
- MIC [3]: ≤ 1 µg/mL
- MIC [4]: ≤ 1 µg/mL
- MIC ([20]; JMI2665): ≤ 1 µg/mL
- MIC [21]: 64 µg/mL
- MIC ([6]; read-out: MIC): 32 µg/mL
- MIC [7]: 512 µg/mL
- MIC [22]: 512 µg/mL
- MIC [9]: 256 µg/mL
- MIC [10]: 8 µg/mL
- MIC [11]: 64 µg/mL
- MIC ([23]; K. pneumo JMI 2681 (Oxa-48 (Cpase)), substance alone, read-out: MIC): 64 µg/mL
- MIC ([24]; P. aerug JMI 149 (Bla+++D+), substance alone, read-out: MIC): 4 µg/mL
- MIC ([25]; E. cloacae JMI 36 (P99), substance alone, read-out: MIC): ≤ 1 µg/mL
- MIC [12, 30]: 16 µg/mL
- MIC [12, 31]: 64 µg/mL
- MIC [12, 32]: 8 µg/mL
- MIC [12, 33]: 2 µg/mL
- MIC [12, 34]: 16 µg/mL
- MIC [12, 35]: 16 µg/mL
- MIC [12, 36]: 2 µg/mL
- MIC [12, 37]: 2 µg/mL
- MIC [12, 38]: 8 µg/mL
- MIC [12, 39]: 32 µg/mL
- MIC [12, 40]: 32 µg/mL
- MIC [12, 41]: 8 µg/mL
- MIC [12, 42]: 64 µg/mL
- MIC [12, 43]: 32 µg/mL
- MIC [12, 44]: 2 µg/mL
- MIC [12, 45]: 8 µg/mL
- MIC [12, 46]: 32 µg/mL
- MIC [12, 47]: 1 µg/mL
- MIC [12, 29]: 8 µg/mL
- MIC [12, 48]: 8 µg/mL
- MIC [26]: ≤ 1 µg/mL
- MIC [27]: ≤ 1 µg/mL
- MIC [13]: ≤ 1 µg/mL
- MIC [16]: ≤ 1 µg/mL
- MIC [17]: ≤ 1 µg/mL
- MIC [18]: ≤ 1 µg/mL
